From US11390631B1, “Benzodiazepine derivatives as RSV inhibitors” (priority 2015, dated 2022)

What follows are compounds tested on Human RSV-A (“Long” strain) (assay: RSV-A assay: inhibition of cytopathic effect in Hep-2 cells, ATPlite readout). Settings: human respiratory syncytial virus, HEp-2, 120 h, read-out: Human RSV-A (“Long” strain) EC50.
Assay type: cell-based, Human respiratory syncytial virus (HRSV)
Excerpt: Hep-2 cells, (originally derived from tumors grown in irradiated-cortisonised weanling rats that had been injected with epidermoid carcinoma tissue from a person's larynx, but later found to be indistinguishable from HeLa cells by PCR DNA analysis), were used for the culturing of genotype A, “Long” strain RSV. Flasks were inoculated with RSV and viral stocks were collected once cytopathic effect (CPE) was greater than 90%. Viral stocks in 25% sucrose media were snap frozen using liquid nitrogen to increase viral stability. Viral stock titers were quantified by tissue culture infectious dose 50% (TCID50) using 8,000 cells per well and 3-fold viral dilutions across a 96-well plate, cultured for 4 days. Viral stock titers were also quantified by a plaque forming unit assay, as described elsewhere.
Following extensive parameter testing, the final assay is run as follows: Hep-2 cells are seeded into the inner 60 wells of a 96-well plate at 8,000 cells per well in a volume of 50 μL using Growth Media (DMEM without phenol red, 1% L-Glut, 1% Penn/Strep, 1% nonessential amino acids, 10% heat-inactivated FBS). 2-fold serial dilutions of control and test compounds are added to the wells in duplicate in a total volume of 25 μL. Viral stock is then added to the wells at a multiplicity of infection (MOI) of 0.1 in a volume of 25 μL, bringing the total volume of each well to 100 μL. The MOI is calculated using the PFU/mL, or TCID50 if unavailable. Each 96-well plate has a control column of 6 wells with cells and virus but no compound (negative control, max CPE), a column with cells but no compound or virus (positive control, minimum CPE), and a column with no cells or virus or compound (background plate/reagent control). The control wells with cells but no virus are given an additional 25 uL of growth media containing an equal quantity of sucrose as those wells receiving the viral stock in order to keep consistent in media and volume conditions. The outer wells of the plate are filled with 125 μL of moat media (DMEM, 1% Penn/Strep) to act as a thermal and evaporative moat around the test wells. Following a 5-day incubation period, the plates are read using ATPlite (50 uL added per well), which quantifies the amount of ATP (a measure of cell health) present in each well. Assay plates are read using the Envision luminometer. In parallel, cytotoxicity is examined on an additional 96-well plate treated in an identical manner, but substituting the 25 μL of viral stock for 25 μL of growth media. […] EC50 ranges are as follows: A<0.4 μM; B 0.4-0.8 μM; C>0.8 μM and CC50 ranges are as follows: A>50 μM; B 10-50 μM; C<10 μM.

Going from `O=C1Nc2ccccc2C(c2ccccc2)=N[C@@H]1Nc1nnc(-c2cnc(N3CC4CCC(C3)O4)nc2)o1` [Example 166] to `O=C1Nc2ccccc2C(c2ccccc2)=N[C@@H]1Nc1nnc(-c2cnc(C3CC3)nc2N2CCOCC2)o1` [Example 167], the EC50 falls from over 800 nM to under 400 nM.

`O=C1Nc2ccccc2C(c2ccccc2)=N[C@@H]1Nc1nnc(-c2cnc(-n3cccn3)nc2N2CCOCC2)o1` [Example 172] and `O=C1Nc2ccccc2C(c2ccccc2)=N[C@@H]1Nc1nnc(-c2cnc(-n3cncn3)nc2N2CCOCC2)o1` [Example 173] cannot be ordered by EC50: over 800 nM for the first, over 800 nM for the second.

`N#Cc1cnc(N2CCOCC2)c(-c2nnc(N[C@H]3N=C(c4ccccc4)c4ccccc4NC3=O)o2)c1` [Example 174] and `CCc1nc(N2CCOCC2)c(-c2nnc(N[C@H]3N=C(c4ccccc4)c4ccccc4NC3=O)o2)cc1C#N` [Example 176] cannot be ordered by EC50: under 400 nM for the first, under 400 nM for the second.

First: Cn1ncc(-c2nnc(N[C@H]3N=C(c4ccccc4)c4ccccc4NC3=O)o2)c1N1CCOCC1 [Example 177]
Second: Cn1ncc(N2CCOCC2)c1-c1nnc(N[C@H]2N=C(c3ccccc3)c3ccccc3NC2=O)o1 [Example 178]
The EC50 of the first is higher: over 800 nM for the first, 400 to 800 nM for the second.

`O=C1Nc2ccccc2C(c2ccccc2)=N[C@@H]1Nc1nnc(-c2sc3ncccc3c2N2CCOCC2)o1` [Example 180] and `O=C1Nc2ccccc2C(c2ccccc2)=N[C@@H]1Nc1nnc(-c2sc(Br)cc2N2CCOCC2)o1` [Example 182] cannot be ordered by EC50: under 400 nM for the first, under 400 nM for the second.

Going from `Cn1cc(-c2nnc(N[C@H]3N=C(c4ccccc4)c4ccccc4NC3=O)o2)c(N2CCOCC2)n1` [Example 181] to `CN1CCN(c2ncccc2-c2nnc(NC3N=C(c4ccccc4)c4ccccc4NC3=O)o2)CC1` (stereo not drawn) [Example 237], the EC50 rises from under 400 nM to over 800 nM.

First: N#Cc1ccc(-c2nnc(NC3N=C(c4ccccc4)c4ccccc4NC3=O)o2)s1 (stereo not drawn) [Example 183]
Second: Cc1nc(-c2nnc(NC3N=C(c4ccccc4)c4ccccc4NC3=O)o2)ccc1C#N (stereo not drawn) [Example 200]
The EC50 of the first is lower: under 400 nM for the first, 400 to 800 nM for the second. The first is the more potent here.

Compared with `O=C1Nc2ccccc2C(c2ccccc2)=NC1Nc1nnc(-c2ccc(N3CCCC3)cc2)o1` (stereo not drawn) [Example 184], `CN1CCN(c2ccc(-c3nnc(NC4N=C(c5ccccc5)c5ccccc5NC4=O)o3)cc2)CC1` (stereo not drawn) [Example 210] is higher in EC50: 400 to 800 nM for the first, over 800 nM for the second. The first is the more potent here.

First: COc1cnc(-c2nnc(NC3N=C(c4ccccc4)c4ccccc4NC3=O)o2)c(F)c1 (stereo not drawn) [Example 185]
Second: Cc1nc2ccc(-c3nnc(NC4N=C(c5ccccc5)c5ccccc5NC4=O)o3)cc2s1 (stereo not drawn) [Example 187]
The EC50 of the first is higher: over 800 nM for the first, 400 to 800 nM for the second.

`Cn1nnc(-c2ccc(-c3nnc(NC4N=C(c5ccccc5)c5ccccc5NC4=O)o3)cc2)n1` (stereo not drawn) [Example 186] and `O=C1Nc2ccccc2C(c2ccccc2)=NC1Nc1nnc(-c2ccc(-n3cnnc3)cc2)o1` (stereo not drawn) [Example 233] cannot be ordered by EC50: over 800 nM for the first, over 800 nM for the second.

`CC(C)c1nnc(NC2N=C(c3ccccc3)c3ccccc3NC2=O)o1` (stereo not drawn) [Example 188] and `CC(C)(C)c1nnc(NC2N=C(c3ccccc3)c3ccccc3NC2=O)o1` (stereo not drawn) [Example 189] cannot be ordered by EC50: over 800 nM for the first, over 800 nM for the second.

`CCCc1nnc(NC2N=C(c3ccccc3)c3ccccc3NC2=O)o1` (stereo not drawn) [Example 190] and `N#CCCc1nnc(NC2N=C(c3ccccc3)c3ccccc3NC2=O)o1` (stereo not drawn) [Example 193] cannot be ordered by EC50: over 800 nM for the first, over 800 nM for the second.

`COCc1nnc(NC2N=C(c3ccccc3)c3ccccc3NC2=O)o1` (stereo not drawn) [Example 191] and `CS(=O)(=O)Cc1nnc(NC2N=C(c3ccccc3)c3ccccc3NC2=O)o1` (stereo not drawn) [Example 194] cannot be ordered by EC50: over 800 nM for the first, over 800 nM for the second.

`O=C1Nc2ccccc2C(c2ccccc2)=NC1Nc1nnc(CCC(F)(F)F)o1` (stereo not drawn) [Example 192] and `O=C1Nc2ccccc2C(c2ccccc2)=NC1Nc1nnc(CC(F)(F)F)o1` (stereo not drawn) [Example 203] cannot be ordered by EC50: over 800 nM for the first, over 800 nM for the second.

`CC1(c2nnc(NC3N=C(c4ccccc4)c4ccccc4NC3=O)o2)CC1` (stereo not drawn) [Example 195] and `CC1(c2nnc(NC3N=C(c4ccccc4)c4ccccc4NC3=O)o2)CCNC1` (stereo not drawn) [Example 223] cannot be ordered by EC50: over 800 nM for the first, over 800 nM for the second.

`O=C1Nc2ccccc2C(c2ccccc2)=NC1Nc1nnc(C2CCC2)o1` (stereo not drawn) [Example 196] and `O=C1Nc2ccccc2C(c2ccccc2)=NC1Nc1nnc(C2CCCC2)o1` (stereo not drawn) [Example 197] cannot be ordered by EC50: over 800 nM for the first, over 800 nM for the second.

`O=C1Nc2ccccc2C(c2ccccc2)=NC1Nc1nnc([C@H]2CCCO2)o1` (stereo partly drawn) [Example 198] and `O=C1Nc2ccccc2C(c2ccccc2)=NC1Nc1nnc([C@@H]2CCCO2)o1` (stereo partly drawn) [Example 207] cannot be ordered by EC50: over 800 nM for the first, over 800 nM for the second.

`O=C1Nc2ccccc2C(c2ccccc2)=NC1Nc1nnc(CCc2ccccc2)o1` (stereo not drawn) [Example 199] and `CC(C)(Cc1ccccc1)c1nnc(NC2N=C(c3ccccc3)c3ccccc3NC2=O)o1` (stereo not drawn) [Example 208] cannot be ordered by EC50: over 800 nM for the first, over 800 nM for the second.

`CN1C(=O)C(Nc2nnc(-c3ccc(F)cc3)o2)N=C(c2ccccc2)c2ccccc21` (stereo not drawn) [Example 201] and `CC1(Nc2nnc(-c3ccc(F)cc3)o2)N=C(c2ccccc2)c2ccccc2NC1=O` (stereo not drawn) [Example 230] cannot be ordered by EC50: over 800 nM for the first, over 800 nM for the second.

Compared with `O=C1Nc2ccccc2C(c2ccccc2)=NC1Nc1nnc(-c2ccc(-n3ccc(C(F)(F)F)n3)cc2)o1` (stereo not drawn) [Example 202], `O=C1Nc2ccccc2C(c2ccccc2)=NC1Nc1nnc(-c2ccc(-n3ccnc3)cc2)o1` (stereo not drawn) [Example 231] is lower in EC50: over 800 nM for the first, under 400 nM for the second.

`CC1(C)C[C@@H]1c1nnc(NC2N=C(c3ccccc3)c3ccccc3NC2=O)o1` (stereo partly drawn) [Example 205] and `CC1(C)CC(c2nnc(NC3N=C(c4ccccc4)c4ccccc4NC3=O)o2)C1` (stereo not drawn) [Example 206] cannot be ordered by EC50: over 800 nM for the first, over 800 nM for the second.

`CN(c1nnc(-c2ccc(F)cc2)o1)C1N=C(c2ccccc2)c2ccccc2NC1=O` (stereo not drawn) [Example 209] and `COCCOc1ccc(-c2nnc(NC3N=C(c4ccccc4)c4ccccc4NC3=O)o2)cc1` (stereo not drawn) [Example 236] cannot be ordered by EC50: over 800 nM for the first, over 800 nM for the second.

`O=C1Nc2ccccc2C(c2ccccc2)=NC1Nc1nnc(-c2ccc(-n3cccn3)nc2)o1` (stereo not drawn) [Example 211] and `O=C1Nc2ccccc2C(c2ccccc2)=NC1Nc1nnc(-c2ccc(-n3cncn3)nc2)o1` (stereo not drawn) [Example 225] cannot be ordered by EC50: over 800 nM for the first, over 800 nM for the second.

`O=C1Nc2ccccc2C(c2ccccc2)=NC1Nc1nnc(-c2cccc(-n3ccnc3)c2)o1` (stereo not drawn) [Example 212] and `O=C1Nc2ccccc2C(c2ccccc2)=NC1Nc1nnc(-c2ccc(-n3ccnc3)nc2)o1` (stereo not drawn) [Example 232] cannot be ordered by EC50: over 800 nM for the first, over 800 nM for the second.

`CC(C)(O)c1nnc(NC2N=C(c3ccccc3)c3ccccc3NC2=O)o1` (stereo not drawn) [Example 213] and `O=C1Nc2ccccc2C(c2ccccc2)=NC1Nc1nnc(C2CC(F)(F)C2)o1` (stereo not drawn) [Example 214] cannot be ordered by EC50: over 800 nM for the first, over 800 nM for the second.

`O=C1Nc2ccccc2C(c2ccccc2)=NC1Nc1nnc(C2CCOC2)o1` (stereo not drawn) [Example 215] and `O=C1Nc2ccccc2C(c2ccccc2)=NC1Nc1nnc(C2CCNC2)o1` (stereo not drawn) [Example 221] cannot be ordered by EC50: over 800 nM for the first, over 800 nM for the second.

`O=C1Nc2ccccc2C(c2ccccc2)=NC1Nc1nnc(-c2ccc(-n3cncn3)c(F)c2)o1` (stereo not drawn) [Example 216] and `Cc1cc(-c2nnc(NC3N=C(c4ccccc4)c4ccccc4NC3=O)o2)ccc1-n1cncn1` (stereo not drawn) [Example 217] fall in the same range of EC50: 400 to 800 nM for the first, 400 to 800 nM for the second.

`Cc1cc(-n2cncn2)ccc1-c1nnc(NC2N=C(c3ccccc3)c3ccccc3NC2=O)o1` (stereo not drawn) [Example 218] and `COc1cc(-c2nnc(NC3N=C(c4ccccc4)c4ccccc4NC3=O)o2)ccc1-n1cnc(C)c1` (stereo not drawn) [Example 219] cannot be ordered by EC50: over 800 nM for the first, over 800 nM for the second.

`O=C1Nc2ccccc2C(c2ccccc2)=NC1Nc1nnc(-c2ccc(OC3CCOCC3)cc2)o1` (stereo not drawn) [Example 220] and `O=C1Nc2ccccc2C(c2ccccc2)=NC1Nc1nnc(-c2ccccc2OC2CCOCC2)o1` (stereo not drawn) [Example 239] cannot be ordered by EC50: over 800 nM for the first, over 800 nM for the second.

`O=C1Nc2ccccc2C(c2ccccc2)=NC1Nc1nnc(C2CC3(CCNCC3)C2)o1` (stereo not drawn) [Example 222] and `O=C1Nc2ccccc2C(c2ccccc2)=NC1Nc1nnc([C@@H]2CCCN2C2CCNCC2)o1` (stereo partly drawn) [Example 227] cannot be ordered by EC50: over 800 nM for the first, over 800 nM for the second.

`O=C1Nc2ccccc2C(c2ccccc2)=NC1Nc1nnc(-c2ccccc2-c2ccncc2)o1` (stereo not drawn) [Example 226] and `O=C1Nc2ccccc2C(c2ccccc2)=NC1Nc1nnc(-c2ccccc2NCc2ccccn2)o1` (stereo not drawn) [Example 235] cannot be ordered by EC50: over 800 nM for the first, over 800 nM for the second.

`CN1CCC(N2CCC[C@H]2c2nnc(NC3N=C(c4ccccc4)c4ccccc4NC3=O)o2)CC1` (stereo partly drawn) [Example 228] and `CN[C@H](c1ccccc1)c1nnc(NC2N=C(c3ccccc3)c3ccccc3NC2=O)o1` (stereo partly drawn) [Example 238] cannot be ordered by EC50: over 800 nM for the first, over 800 nM for the second.

`COCCOc1ccccc1-c1nnc(NC2N=C(c3ccccc3)c3ccccc3NC2=O)o1` (stereo not drawn) [Example 229] and `CN(C)CCOc1ccccc1-c1nnc(NC2N=C(c3ccccc3)c3ccccc3NC2=O)o1` (stereo not drawn) [Example 234] cannot be ordered by EC50: over 800 nM for the first, over 800 nM for the second.
